Laboratory results: patent publication US20250120961A1, “P53 MODULATORS” (Nested Therapeutics, Inc., priority 2023, published 2025)

Each compound was assayed against His-tagged p53-Y220C DNA binding domain (Homo sapiens, UniProt P04637, Y220C) (assay: Biochemical p53-Y220C and DNA binding assay (HTRF)). Details: inflection point of 10 points dose titration, 4 parameter curve fit; p53-Y220C DBD 100 nM, biotinylated dsDNA 200 nM, 27 to 29° C.; read-out: HTRF IP.
From the text: Biological Example 1. Biochemical p53-Y220C and DNA Binding Assay
The compounds of this invention can bind to p53-Y220C and increase the ability of the mutant p53 to bind to DNA at higher temperatures. His-tagged p53-Y220C DNA binding domain containing amino acid 94-312 is used to measure DNA binding activities in vitro with the sequence described below. (SEQ ID NO: 1: […]. Biotin labeled double strand DNA (dsDNA) containing consensus p53 binding sequence (SEQ ID NO: 2: Forward: 5′-(biotin)-[…]-3′; Reverse: 5′-(biotin)-[…]-3′) is used to measure protein-DNA binding activities. Compounds, His-tagged p53-Y220C DBD proteins (100 nM), and biotinylated dsDNA (200 nM) were mixed in ice-cold assay buffer containing DPBS, 20 mM NaCl, and 0.5% BAS, and incubated at 4° C. overnight in 384-well plate. Plates were transferred to incubator at 27 to 29° C. with constant shaking for 60 minutes. Equal volume of Homogeneous Time-Resolved Fluorescence (HTRF) dyes containing mAb anti-6HIS Tb cryptate gold and d2 labeled streptavidin in the assay buffer was added to each well and incubated at 27 to 29° C. with constant shaking for 60 minutes. The plate was read using Envision multimode plate reader. Reference compound 1 was used as high control and DMSO was used as low control. The percentage activation (A %) of protein-DNA binding by compounds was normalized by setting up high control (reference compound) as […] and low control (DMSO) as 0% (A %=(HTRF ratio of compound-HTRF ratio of low control)/(HTRF ratio of high control-HTRF ratio of low control)*500). 10 points dose titration curves for each compound were analyzed by 4 parameter curve fit and inflection point (IP) was reported. Reference compound 1 is shown below Table 1. Compounds of the invention are active in the HTRF assay. Data in Table 1 collected using Biological Example 1.

SMILES	EC50
CC(CO)(O/N=C/c1sc2c(N[C@@H]3CNC[C@@H]3F)cccc2c1CC(F)(F)F)c1ccccc1 (stereo partly drawn) [Example 1-23, (E)-7-(((3R,4S)-4-fluoropyrrolidin-3-yl)amino)-3-(2,2,2-trifluoroethyl)benzo[b]thiophene-2-carbaldehyde O-(1-hydroxy-2-phenylpropan-2-yl) oxime]	> 1000 nM
CC[C@H](CO)O/N=C/c1sc2c(NC3CNCC3F)cccc2c1CC(F)(F)F (stereo in doubt) [Example 1-4, (E)-7-(((3S,4R)-4-fluoropyrrolidin-3-yl)amino)-3-(2,2,2-trifluoroethyl)benzo[b]thiophene-2-carbaldehyde O-((R)-1-hydroxybutan-2-yl) oxime]	> 1000 nM
OCC1(O/N=C/c2sc3c(N[C@@H]4CNC[C@@H]4F)cccc3c2CC(F)(F)F)CCC1 [Example 1-19, (E)-7-(((3R,4S)-4-fluoropyrrolidin-3-yl)amino)-3-(2,2,2-trifluoroethyl)benzo[b]thiophene-2-carbaldehyde O-(1-(hydroxymethyl)cyclobutyl) oxime]	100 to 1000 nM
COCC(O)CO/N=C/c1sc2c(N[C@@H]3CNC[C@@H]3F)cccc2c1CC(F)(F)F (stereo partly drawn) [Example 1-10, (E)-7-(((3R,4S)-4-fluoropyrrolidin-3-yl)amino)-3-(2,2,2-trifluoroethyl)benzo[b]thiophene-2-carbaldehyde O-(2-hydroxy-3-methoxypropyl) oxime]	100 to 1000 nM
OCC(O)CO/N=C/c1sc2c(N[C@@H]3CNC[C@@H]3F)cccc2c1CC(F)(F)F (stereo partly drawn) [Example 1-6, (E)-7-(((3R,4S)-4-fluoropyrrolidin-3-yl)amino)-3-(2,2,2-trifluoroethyl)benzo[b]thiophene-2-carbaldehyde O-(2,3-dihydroxypropyl) oxime]	100 to 1000 nM
OC1(CO/N=C/c2sc3c(N[C@@H]4CNC[C@@H]4F)cccc3c2CC(F)(F)F)CCOCC1 [Example 1-20, (E)-7-(((3R,4S)-4-fluoropyrrolidin-3-yl)amino)-3-(2,2,2-trifluoroethyl)benzo[b]thiophene-2-carbaldehyde O-((4-hydroxytetrahydro-2H-pyran-4-yl)methyl) oxime]	100 to 1000 nM
OC1(CO/N=C/c2sc3c(N[C@@H]4CNC[C@@H]4F)cccc3c2CC(F)(F)F)CCC1 [Example 1-18, (E)-7-(((3R,4S)-4-fluoropyrrolidin-3-yl)amino)-3-(2,2,2-trifluoroethyl)benzo[b]thiophene-2-carbaldehyde O-((1-hydroxycyclobutyl)methyl) oxime]	100 to 1000 nM
CC[C@H](O)CO/N=C/c1sc2c(N[C@@H]3CNC[C@@H]3F)cccc2c1CC(F)(F)F [Example 1-3, (E)-7-(((3R,4S)-4-fluoropyrrolidin-3-yl)amino)-3-(2,2,2-trifluoroethyl)benzo[b]thiophene-2-carbaldehyde O-((S)-2-hydroxybutyl) oxime]	100 to 1000 nM
O=C(OCc1ccccc1)N1CCC(CO)(O/N=C/c2sc3c(N[C@@H]4CNC[C@@H]4F)cccc3c2CC(F)(F)F)CC1 [Example 1-26, benzyl 4-((((E)-(7-(((3R,4S)-4-fluoropyrrolidin-3-yl)amino)-3-(2,2,2-trifluoroethyl)benzo[b]thiophen-2-yl)methylene)amino)oxy)-4-(hydroxymethyl)piperidine-1-carboxylate]	> 1000 nM
CC(C)(O)CO/N=C/c1sc2c(N[C@@H]3CNC[C@@H]3F)cccc2c1CC(F)(F)F [Example 1-7, (E)-7-(((3R,4S)-4-fluoropyrrolidin-3-yl)amino)-3-(2,2,2-trifluoroethyl)benzo[b]thiophene-2-carbaldehyde O-(2-hydroxy-2-methylpropyl) oxime]	< 100 nM

More lines, now with the values ahead:

EC50	SMILES
100 to 1000 nM	O=C1NC(CO/N=C/c2sc3c(N[C@@H]4CNC[C@@H]4F)cccc3c2CC(F)(F)F)CO1 (stereo partly drawn) [Example 2-19, (E)-7-(((3R,4S)-4-fluoropyrrolidin-3-yl)amino)-3-(2,2,2-trifluoroethyl)benzo[b]thiophene-2-carbaldehyde O-((2-oxooxazolidin-4-yl)methyl) oxime]
< 100 nM	COc1cc(S(C)(=O)=O)ccc1NC/C=C/c1sc2c(N[C@@H]3CCN(C)C[C@@H]3F)cccc2c1CC(F)(F)F [Example 7-2, (3S,4R)-3-fluoro-N-(2-((E)-3-((2-methoxy-4-(methylsulfonyl)phenyl)amino)prop-1-en-1-yl)-3-(2,2,2-trifluoroethyl)benzo[b]thiophen-7-yl)-1-methylpiperidin-4-amine]
100 to 1000 nM	OC1(CO/N=C/c2sc3c(N[C@@H]4CNC[C@@H]4F)cccc3c2CC(F)(F)F)CCOC1 (stereo partly drawn) [Example 1-40, (E)-7-(((3R,4S)-4-fluoropyrrolidin-3-yl)amino)-3-(2,2,2-trifluoroethyl)benzo[b]thiophene-2-carbaldehyde O-((3-hydroxytetrahydrofuran-3-yl)methyl) oxime]
100 to 1000 nM	CN1CC[C@@H](Nc2cccc3c(SC(F)(F)F)c(/C=N/OCC(C)(C)O)sc23)[C@@H](F)C1 [Example 2-32, (E)-7-(((3S,4R)-3-fluoro-1-methylpiperidin-4-yl)amino)-3-((trifluoromethyl)thio)benzo[b]thiophene-2-carbaldehyde O-(2-hydroxy-2-methylpropyl) oxime]
< 100 nM	CN1CC[C@@H](Nc2cccc3c(CC(F)(F)F)c(/C=N/OCC(C)(C)O)sc23)[C@@H](F)C1 [Example 1-39, (E)-7-(((3S,4R)-3-fluoro-1-methylpiperidin-4-yl)amino)-3-(2,2,2-trifluoroethyl)benzo[b]thiophene-2-carbaldehyde O-(2-hydroxy-2-methylpropyl) oxime]
100 to 1000 nM	F[C@H]1CNC[C@H]1Nc1cccc2c(CC(F)(F)F)c(/C=N/OCc3ccccn3)sc12 [Example 3-3, (E)-7-(((3R,4S)-4-fluoropyrrolidin-3-yl)amino)-3-(2,2,2-trifluoroethyl)benzo[b]thiophene-2-carbaldehyde O-pyridin-2-ylmethyl oxime]
100 to 1000 nM	F[C@H]1CNC[C@H]1Nc1cccc2c(CC(F)(F)F)c(/C=N/OC3CCC3)sc12 [Example 2-24, (E)-7-(((3R,4S)-4-fluoropyrrolidin-3-yl)amino)-3-(2,2,2-trifluoroethyl)benzo[b]thiophene-2-carbaldehyde O-cyclobutyl oxime]
< 100 nM	CN1CC[C@@H](Nc2cccc3c(CC(F)(F)F)c(/C=N/OCc4cccc(=O)[nH]4)sc23)[C@@H](F)C1 [Example 2-31, (E)-7-(((3S,4R)-3-fluoro-1-methylpiperidin-4-yl)amino)-3-(2,2,2-trifluoroethyl)benzo[b]thiophene-2-carbaldehyde O-((6-oxo-1,6-dihydropyridin-2-yl)methyl) oxime]
100 to 1000 nM	CN1CC[C@@H](Nc2cccc3c(CC(F)(F)F)c(/C=C/C(O)c4ccncc4)sc23)[C@@H](F)C1 (stereo partly drawn) [Example 5-9, (E)-3-(7-(((3S,4R)-3-fluoro-1-methylpiperidin-4-yl)amino)-3-(2,2,2-trifluoroethyl)benzo[b]thiophen-2-yl)-1-(pyridin-4-yl)prop-2-en-1-ol]
< 100 nM	O=c1cccc(CO/N=C/c2sc3c(N[C@@H]4CNC[C@@H]4F)cccc3c2CC(F)(F)F)[nH]1 [Example 2-26, (E)-7-(((3R,4S)-4-fluoropyrrolidin-3-yl)amino)-3-(2,2,2-trifluoroethyl)benzo[b]thiophene-2-carbaldehyde O-((6-oxo-1,6-dihydropyridin-2-yl)methyl) oxime]
> 1000 nM	OCC(Cn1cccn1)O/N=C/c1sc2c(N[C@@H]3CNC[C@@H]3F)cccc2c1CC(F)(F)F (stereo partly drawn) [Example 1-28, (E)-7-(((3R,4S)-4-fluoropyrrolidin-3-yl)amino)-3-(2,2,2-trifluoroethyl)benzo[b]thiophene-2-carbaldehyde O-(1-hydroxy-3-(1H-pyrazol-1-yl)propan-2-yl) oxime]
> 1000 nM	OC1(CO/N=C\c2sc3c(N[C@@H]4CNC[C@@H]4F)cccc3c2CC(F)(F)F)CCCCC1 [Example 1-31, (Z)-7-(((3R,4S)-4-fluoropyrrolidin-3-yl)amino)-3-(2,2,2-trifluoroethyl)benzo[b]thiophene-2-carbaldehyde O-((1-hydroxycyclohexyl)methyl) oxime]
100 to 1000 nM	COc1cccc(CO/N=C/c2sc3c(N[C@@H]4CCN(C)C[C@@H]4F)cccc3c2CC(F)(F)F)n1 [Example 2-27, (E)-7-(((3S,4R)-3-fluoro-1-methylpiperidin-4-yl)amino)-3-(2,2,2-trifluoroethyl)benzo[b]thiophene-2-carbaldehyde O-((6-methoxypyridin-2-yl)methyl) oxime]
100 to 1000 nM	F[C@H]1CNC[C@H]1Nc1cccc2c(CC(F)(F)F)c(/C=N/OCc3nc4ccccc4s3)sc12 [Example 3-5, (E)-7-(((3R,4S)-4-fluoropyrrolidin-3-yl)amino)-3-(2,2,2-trifluoroethyl)benzo[b]thiophene-2-carbaldehyde O-(benzo[d]thiazol-2-ylmethyl) oxime]
